Reference: patent US20040197416A1, “Nanocapsules containing a steroid for cosmetic compositions” (priority 2001, published 2004)

What was measured:
[1] = Solubility of DHEA in various oily solvents (excess DHEA, supernatant analysed by HPLC); format: physicochemical; conditions: for RT solubility: room temperature (25° C.), after 24 hours; for solubility of DHEA: comparative
Protocol: The solubility measurement was performed in the following manner. DHEA was dispersed, in excess, in the solvent under consideration, and preheated to 60° C. This temperature was maintained for one hour with stirring using a magnetic bar. The suspension was then cooled to room temperature (RT, 25° C.). After 24 hours, the suspension was centrifuged to remove the undissolved DHEA crystals. The supernatant was taken up and the absence of DHEA crystals was checked by cross-polarized optical microscopy. This supernatant was then analysed by HPLC. It is considered that the amount of DHEA detected corresponds to its maximum solubility in the solvent under consideration.

fibroblasts = conditions: cited from earlier work
human keratinocytes = conditions: cited from earlier work
skin = conditions: rats; cited from earlier work

SMILES: C[C@]12CC[C@H](O)CC1=CC[C@@H]1[C@@H]2CC[C@]2(C)C(=O)CC[C@@H]12 [DHEA, dehydroepiandrosterone]
- RT solubility ([1]; DHEA in Capric/caprylic triglycerides): 1.77%
- RT solubility ([1]; DHEA in Isopropyl palmitate): 1.37%
- RT solubility ([1]; DHEA in Isostearyl neopentanoate): 1.30%
- RT solubility ([1]; DHEA in Jojoba oil): 1.10%
- RT solubility ([1]; DHEA in Octyl palmitate): 1%
- RT solubility ([1]; DHEA in PPG-15 stearyl ether): 2.68%
- RT solubility ([1]; DHEA in Sesame oil): 1.40%
- RT solubility ([1]; DHEA in α-Tocopherol): 1.65%
- solubility of DHEA ([1]; in cetearyl isononanoate): 0.83%
- solubility of DHEA ([1]; in cyclopentasiloxane): 0.04%
- solubility of DHEA ([1]; in liquid paraffin): 0%
- solubility of DHEA ([1]; in polydimethylsiloxane (200-350 cs)): 0.17%
- solubility of DHEA ([1]; in squalane): 0.10%

SMILES: C[C@]12CC[C@H](O)CC1=C[C@@H](O)[C@@H]1[C@@H]2CC[C@]2(C)C(=O)CC[C@@H]12 [7α-hydroxy DHEA]
- proliferation of fibroblasts (fibroblasts): increase
- viability of human keratinocytes (human keratinocytes): increase
- elastin and collagen content of the skin (skin): increases
- thickness of the dermis (skin): increases
